Test results: patent US6810371B1 (priority 1906, dated 2004)
Where two headings read alike, the source gives them in different places.

Assays:
[1] = Estimated exposure amount of inhabitants (inhalation, percutaneous, oral); settings: for estimated PERCUTANEOUS exposure amount: contact area 4.0 m^2/day; for estimated exposure amount in INHALATION (WINDOW CLOSED): exposure time 24 h/day; for estimated exposure amount in INHALATION (WINDOW OPEN): window opened for 5 minutes after spraying; for estimated ORAL exposure amount: hand surface area ratio about 5 %, oral transference ratio 100 %
From the text: estimated exposure amount in inhalation [mg/kg/day]=mean concentration in indoor air [mg/m^3]×amount of respiration [m^3/kg/min]×exposure time [min/day]
estimated percutaneous exposure amount [mg/kg/day]=(mean residual amount [mg/m^2]×skin attachment ratio [%]×contact area [m^2/day])/body weight [kg]
estimated oral exposure amount [mg/kg/day]=estimated percutaneous exposure amount [mg/kg/day]×hand surface area ratio [%]×oral transference ratio [%]
Here, the mean indoor respiration amount of Japanese is 0.220 [L/min/kg] for an adult, and 0.235 [L/min/kg] for an infant. Also, the exposure time was presumed to be 24 [h/day], taking account of the worst case where inhabitants are confined in the room for 24 hours after spraying.
In the table, “window closed” refers to the case where the window is closed throughout the exposure time, whereas “window open” refers to the case where spraying was effected in the state with the closed window and then the window was opened for 5 minutes (Example 3).
Here, it was assumed that the contact area for an infant and an adult was 4.0 [m^2/day], the body weight of the infant was 10.2 [kg], and the body weight of the adult was 50 [kg]. […] These values were used for calculating the estimated percutaneous exposure amount.
Here, while the hand surface area ratio was assumed to be about 5[%], and the oral transference ratio was presumed to be the worst case of 100[%], only the estimated oral exposure amount of the infant was calculated.

[2] = Protocol: Finally, if it is judged to be safe at S8, S12, or S15, overall safety is evaluated. Here, the sum of respective reciprocals of the previously determined inhalation safety coefficient, percutaneous safety coefficient, and oral safety coefficient is determined, and the reciprocal of thus determined value is defined as an overall safety coefficient (S16).
inhalation safety coefficient=inhalation non-influential amount [mg/kg/day]/estimated exposure amount in inhalation [mg/kg/day]
percutaneous safety coefficient=percutaneous non-influential amount [mg/kg/day]/estimated percutaneous exposure amount [mg/kg/day]
oral safety coefficient=oral non-influential amount [mg/kg/day]/estimated oral exposure amount [mg/kg/day]

rat = experiment: Non-influential amount of a rat (inhalation, percutaneous, oral toxicity tests); type: in vivo; settings: for non-influential in-air concentration: 4-week inhalation test (d-phenothrin 4 h/day, 6 days a week; d-tetramethrin 3 h/day, 7 days a week); for non-influential amount in inhalation: 4-week test (d-phenothrin 4 h/day, 6 days a week; d-tetramethrin 3 h/day, 7 days a week), respiration 0.365 L/min/kg; for non-influential amount for oral exposure: 6-month test; for non-influential amount for percutaneous exposure: 21-day test
From the text: (6-month test) for oral exposure. […] (6-month test) for oral exposure.

[3] = ADULT, respiration 0.220 L/min/kg
[4] = INFANT, respiration 0.235 L/min/kg

SMILES | estimated PERCUTANEOUS exposure amount ([1]; ADULT, body weight 50 kg) | estimated exposure amount in INHALATION (WINDOW CLOSED) [1, 3] | estimated exposure amount in INHALATION (WINDOW OPEN) ([1]; ADULT) | estimated PERCUTANEOUS exposure amount ([1]; INFANT, body weight 10.2 kg) | estimated exposure amount in INHALATION (WINDOW CLOSED) [1, 4] | estimated ORAL exposure amount ([1]; INFANT) | estimated exposure amount in INHALATION (WINDOW OPEN) ([1]; INFANT) | non-influential in-air concentration (rat) [mg/m^3] | non-influential amount in inhalation (rat) [mg/kg/day] | non-influential amount for oral exposure (rat) [mg/kg/day] | non-influential amount for percutaneous exposure (rat) [mg/kg/day] | other results
CC(C)=CC1[C@@H](C(=O)OCc2cccc(Oc3ccccc3)c2)C1(C)C (stereo in doubt) [d-phenothrin] | 0.553 | 0.744 | 0.149 | 2.71 | 0.795 | 0.135 | 0.159 | 210 | 18.4 | 125 | 1000 | INHALATION (WINDOW CLOSED) safety coefficient ([2]; ADULT): 24,700; INHALATION (WINDOW OPEN) safety coefficient ([2]; ADULT): 124,000; PERCUTANEOUS safety coefficient ([2]; ADULT): 1,810,000; TOTAL (WINDOW CLOSED) safety coefficient ([2]; ADULT): 24,400; TOTAL (WINDOW OPEN) safety coefficient ([2]; ADULT): 116,000; INHALATION (WINDOW CLOSED) safety coefficient ([2]; INFANT): 23,100; INHALATION (WINDOW OPEN) safety coefficient ([2]; INFANT): 116,000; ORAL safety coefficient ([2]; INFANT): 923,000; PERCUTANEOUS safety coefficient ([2]; INFANT): 369,000; TOTAL (WINDOW CLOSED) safety coefficient ([2]; INFANT): 21,300; TOTAL (WINDOW OPEN) safety coefficient ([2]; INFANT): 80,400
CC(C)=CC1[C@@H](C(=O)OCN2C(=O)C3=C(CCCC3)C2=O)C1(C)C (stereo in doubt) [d-tetramethrin] | 0.438 | 1.01 | 0.202 | 2.15 | 1.12 | 0.107 | 0.224 | 49 | 3.22 | 10.75 | 1000 | 
